# Measurements taken from patent US7462600B2, “Macrolides” (Pfizer Inc, priority 2004, dated 2008).
# How the values were obtained:
# Assay type in all cases: cell-based
# [1] = system: Streptococcus pyogenes 1079; assay: MIC, microtiter broth dilution (NCCLS M100-S14), S. pyogenes 1079 (ermB); conditions: S. pyogenes 1079 (ermB)
# How it was run: (§1)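 Panel strains, including macrolide-resistant isolates and their susceptible parents where available, are exposed to serial compound dilutions in microtiter trays. Growth inhibition is scored as MIC under NCCLS M100-S14 standards.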
# [2] = system: Streptococcus pneumoniae 1016; assay: MIC, microtiter broth dilution (NCCLS M100-S14), S. pneumoniae 1016 (susceptible); conditions: S. pneumoniae 1016 (susceptible)
# How it was run: as §1
# [3] = system: Streptococcus pneumoniae 1095; conditions: S. pneumoniae 1095 (ermB); microtiter broth dilution
# How it was run: as §1
# [4] = system: Streptococcus pneumoniae 1175; conditions: S. pneumoniae 1175 (mefA); microtiter broth dilution
# How it was run: as §1
# [5] = system: Haemophilus influenzae 1218; assay: MIC, microtiter broth dilution (NCCLS M100-S14), H. influenzae 1218 (susceptible); conditions: H. influenzae 1218 (susceptible)
# How it was run: as §1
SMILES,MIC S. pyogenes 1079 [1],MIC S. pneumo. 1016 [2],MIC S. pneumo. 1095 [3],MIC S. pneumo. 1175 [4],MIC H. influenzae 1218 [5]
CCC1OC(=O)C(C)C(=O)C(C)C(OC2OC(C)CC(N(C)C)C2O)C(C)(OC)CC(C)C(=O)C(C)C2N(CC3CCN(Cc4ccnc5ccccc45)CC3)C(=O)OC12C (stereo not drawn) [15.02],>64.00 µg/mL,<0.06 µg/mL,>64.00 µg/mL,0.5 µg/mL,32 µg/mL
CCC1OC(=O)C(C)C(=O)C(C)C(OC2OC(C)CC(N(C)C)C2O)C(C)(OC)CC(C)C(=O)C(C)C2N(CC3CCN(Cc4cnc5ccccc5c4)CC3)C(=O)OC12C (stereo not drawn) [15.03],>64.00 µg/mL,<0.06 µg/mL,>64.00 µg/mL,0.25 µg/mL,8 µg/mL
CCC1OC(=O)C(C)C(=O)C(C)C(OC2OC(C)CC(N(C)C)C2O)C(C)(OC)CC(C)C(=O)C(C)C2N(CC3CCN(Cc4ccc(OC)nc4)CC3)C(=O)OC12C (stereo not drawn) [15.04],>64.00 µg/mL,<0.06 µg/mL,>64.00 µg/mL,0.5 µg/mL,16 µg/mL
CCC1OC(=O)C(C)C(=O)C(C)C(OC2OC(C)CC(N(C)C)C2O)C(C)(OC)CC(C)C(=O)C(C)C2N(CC3CCN(Cc4cccc(OC)n4)CC3)C(=O)OC12C (stereo not drawn) [15.05],>64.00 µg/mL,<0.06 µg/mL,>64.00 µg/mL,0.5 µg/mL,8 µg/mL
CCC1OC(=O)C(C)C(=O)C(C)C(OC2OC(C)CC(N(C)C)C2O)C(C)(OC)CC(C)C(=O)C(C)C2N(CC3CCN(Cc4cccnc4OC)CC3)C(=O)OC12C (stereo not drawn) [15.06],>64.00 µg/mL,<0.06 µg/mL,>64.00 µg/mL,0.5 µg/mL,32 µg/mL
CCC1OC(=O)C(C)C(=O)C(C)C(OC2OC(C)CC(N(C)C)C2O)C(C)(OC)CC(C)C(=O)C(C)C2N(CC3CCN(Cc4ccc(-c5ccccn5)cc4)CC3)C(=O)OC12C (stereo not drawn) [15.07],>64.00 µg/mL,<0.06 µg/mL,>64.00 µg/mL,1 µg/mL,32 µg/mL
CCC1OC(=O)C(C)C(=O)C(C)C(OC2OC(C)CC(N(C)C)C2O)C(C)(OC)CC(C)C(=O)C(C)C2N(CC3CCN(Cc4cnc(-c5ccccc5)[nH]4)CC3)C(=O)OC12C (stereo not drawn) [15.08],>64.00 µg/mL,<0.06 µg/mL,>64.00 µg/mL,1 µg/mL,2 µg/mL
CCC1OC(=O)C(C)C(=O)C(C)C(OC2OC(C)CC(N(C)C)C2O)C(C)(OC)CC(C)C(=O)C(C)C2N(CC3CCN(Cc4ccno4)CC3)C(=O)OC12C (stereo not drawn) [15.09],>64.00 µg/mL,<0.06 µg/mL,>64.00 µg/mL,0.5 µg/mL,16 µg/mL
CCC1OC(=O)C(C)C(=O)C(C)C(OC2OC(C)CC(N(C)C)C2O)C(C)(OC)CC(C)C(=O)C(C)C2N(CC3CCN(Cc4c[nH]nn4)CC3)C(=O)OC12C (stereo not drawn) [15.10],>64.00 µg/mL,<0.06 µg/mL,>64.00 µg/mL,8 µg/mL,4 µg/mL
